Results published in ChEMBL document CHEMBL5385976, “Recognition of arylmethylidene derivatives of imidazothiazolotriazinones as novel tubulin polymerization inhibitors” (RSC Med Chem, 2024).

Key:
Assay type in all cases: functional
[1] = system: SNB-19; test: Anticancer activity against human SNB-19 cells assessed as cell growth at 10 umol/L incubated for 48 hrs by SRB assay relative to control; details: SNB-19, 48 h, dose 10 µmol/L, read-out: Activity
[2] = system: SN12C; test: Anticancer activity against human SN12C cells assessed as cell growth at 10 umol/L incubated for 48 hrs by SRB assay relative to control; details: dose 10 µmol/L, read-out: Activity
[3] = system: TK-10; test: Anticancer activity against human TK-10 cells assessed as cell growth at 10 umol/L incubated for 48 hrs by SRB assay relative to control; details: TK-10, 48 h, dose 10 µmol/L, read-out: Activity
[4] = system: SF-295; test: Anticancer activity against human SF-295 cells assessed as cell growth at 10 umol/L incubated for 48 hrs by SRB assay relative to control; details: SF-295, 48 h, dose 10 µmol/L, read-out: Activity
[5] = system: UACC-62; test: Anticancer activity against human UACC-62 cells assessed as cell growth at 10 umol/L incubated for 48 hrs by SRB assay relative to control; details: UACC-62, 48 h, dose 10 µmol/L, read-out: Activity
[6] = system: A498; test: Anticancer activity against human A498 cells assessed as cell growth at 10 umol/L incubated for 48 hrs by SRB assay relative to control; details: A498, 48 h, dose 10 µmol/L, read-out: Activity
[7] = system: NCI-H23; test: Anticancer activity against human NCI-H23 cells assessed as cell growth at 10 umol/L incubated for 48 hrs by SRB assay relative to control; details: NCI-H23, 48 h, dose 10 µmol/L, read-out: Activity
[8] = system: K562; test: Induction of cell cycle arrest in human K562 cells at G1 phase at 0.5 uM incubated for 3 days by RNase/PI staining based flow cytometry (reference value: 50 %); details: time 3 day
[9] = system: HOP-92; test: Anticancer activity against human HOP-92 cells assessed as cell growth at 10 umol/L incubated for 48 hrs by SRB assay relative to control; details: HOP-92, 48 h, dose 10 µmol/L, read-out: Activity
[10] = system: SF-268; test: Anticancer activity against human SF-268 cells assessed as cell growth at 10 umol/L incubated for 48 hrs by SRB assay relative to control; details: SF-268, 48 h, dose 10 µmol/L, read-out: Activity
[11] = system: SK-MEL-2; test: Anticancer activity against human SK-MEL-2 cells assessed as cell growth at 10 umol/L incubated for 48 hrs by SRB assay relative to control; details: SK-MEL-2, 48 h, dose 10 µmol/L, read-out: Activity
[12] = system: NCI-H460; test: Anticancer activity against human NCI-H460 cells assessed as cell growth at 10 umol/L incubated for 48 hrs by SRB assay relative to control; details: NCI-H460, 48 h, dose 10 µmol/L, read-out: Activity
[13] = system: RXF 393; test: Anticancer activity against human RXF 393 cells assessed as cell growth at 10 umol/L incubated for 48 hrs by SRB assay relative to control; details: RXF 393, 48 h, dose 10 µmol/L, read-out: Activity
[14] = system: MOLT-4; test: Anticancer activity against human MOLT-4 cells assessed as cell growth at 10 umol/L incubated for 48 hrs by SRB assay relative to control; details: MOLT-4, 48 h, dose 10 µmol/L, read-out: Activity
[15] = system: SK-OV-3; test: Anticancer activity against human SK-OV-3 cells assessed as cell growth at 10 umol/L incubated for 48 hrs by SRB assay relative to control; details: SK-OV-3, 48 h, dose 10 µmol/L, read-out: Activity
[16] = system: DU-145; test: Anticancer activity against human DU-145 cells assessed as cell growth at 10 umol/L incubated for 48 hrs by SRB assay relative to control; details: DU-145, 48 h, dose 10 µmol/L, read-out: Activity
[17] = system: HCC 2998; test: Anticancer activity against human HCC 2998 cells assessed as cell growth at 10 umol/L incubated for 48 hrs by SRB assay relative to control; details: HCC 2998, 48 h, dose 10 µmol/L, read-out: Activity
[18] = system: K562; test: Induction of apoptosis in human K562 cells at 0.5 uM incubated for 3 days by RNase/PI staining based flow cytometry (reference value: 1.4 %); details: time 3 day
[19] = system: K562; test: Induction of cell cycle arrest in human K562 cells at S phase at 0.5 uM incubated for 3 days by RNase/PI staining based flow cytometry (reference value: 16 %); details: time 3 day
[20] = system: MDA-MB-231; test: Anticancer activity against human MDA-MB-231 cells assessed as cell growth at 10 umol/L incubated for 48 hrs by SRB assay relative to control; details: MDA-MB-231, 48 h, dose 10 µmol/L, read-out: Activity
[21] = system: 786-0; test: Anticancer activity against human 786-0 cells assessed as cell growth at 10 umol/L incubated for 48 hrs by SRB assay relative to control; details: 786-0, 48 h, dose 10 µmol/L, read-out: Activity
[22] = system: HL-60(TB); test: Anticancer activity against human HL-60(TB) cells assessed as cell growth at 10 umol/L incubated for 48 hrs by SRB assay relative to control; details: HL-60, 48 h, dose 10 µmol/L, read-out: Activity
[23] = system: SF-539; test: Anticancer activity against human SF-539 cells assessed as cell growth at 10 umol/L incubated for 48 hrs by SRB assay relative to control; details: SF-539, 48 h, dose 10 µmol/L, read-out: Activity
[24] = system: K562; test: Induction of cell cycle arrest in human K562 cells at G2/M phase at 0.5 uM incubated for 3 days by RNase/PI staining based flow cytometry (reference value: 31 %); details: time 3 day
[25] = system: OVCAR-4; test: Anticancer activity against human OVCAR-4 cells assessed as cell growth at 10 umol/L incubated for 48 hrs by SRB assay relative to control; details: OVCAR-4, 48 h, dose 10 µmol/L, read-out: Activity
[26] = system: CAKI-1; test: Anticancer activity against human CAKI-1 cells assessed as cell growth at 10 umol/L incubated for 48 hrs by SRB assay relative to control; details: CAKI-1, 48 h, dose 10 µmol/L, read-out: Activity
[27] = system: HT-29; test: Anticancer activity against human HT-29 cells assessed as cell growth at 10 umol/L incubated for 48 hrs by SRB assay relative to control; details: HT-29, 48 h, dose 10 µmol/L, read-out: Activity
[28] = system: UACC-257; test: Anticancer activity against human UACC-257 cells assessed as cell growth at 10 umol/L incubated for 48 hrs by SRB assay relative to control; details: UACC-257, 48 h, dose 10 µmol/L, read-out: Activity
[29] = system: HCT-15; test: Anticancer activity against human HCT-15 cells assessed as cell growth at 10 umol/L incubated for 48 hrs by SRB assay relative to control; details: HCT-15, 48 h, dose 10 µmol/L, read-out: Activity
[30] = system: LOX IMVI; test: Anticancer activity against human LOX IMVI cells assessed as cell growth at 10 umol/L incubated for 48 hrs by SRB assay relative to control; details: dose 10 µmol/L, read-out: Activity
[31] = system: T47D; test: Anticancer activity against human T47D cells assessed as cell growth at 10 umol/L incubated for 48 hrs by SRB assay relative to control; details: dose 10 µmol/L, read-out: Activity

Structure (SMILES) | growth at 10 µM [1] [%] | growth at 10 µM [2] [%] | growth at 10 µM [3] [%] | growth at 10 µM [4] [%] | growth at 10 µM [5] [%] | growth at 10 µM [6] [%] | growth at 10 µM [7] [%] | Activity [8] [%] | growth at 10 µM [9] [%] | growth at 10 µM [10] [%] | growth at 10 µM [11] [%] | growth at 10 µM [12] [%] | growth at 10 µM [13] [%] | growth at 10 µM [14] [%] | growth at 10 µM [15] [%] | growth at 10 µM [16] [%] | growth at 10 µM [17] [%] | Activity [18] [%] | Activity [19] [%] | growth at 10 µM [20] [%] | further results
COc1cc2c(c(OC)c1OC)-c1ccc(OC)c(=O)cc1[C@@H](NC(C)=O)CC2 [COLCHICINE] | 19 | 46.8 | 52.7 | -10.6 | 19.1 | 15.5 | 12.6 | 18 | 2.4 | 35.1 | -32 | 2.9 | 15.3 | 6.7 | 36.1 | 7.6 | -59 | 3.1 | 19 | 11.7 | growth at 10 µM [21]: 15.4%; growth at 10 µM [22]: 13%; growth at 10 µM [23]: 7.9%; Activity [24]: 56%; growth at 10 µM [25]: 56.4%; growth at 10 µM [26]: 20.3%; growth at 10 µM [27]: -29.9%; growth at 10 µM [28]: 24.9%; growth at 10 µM [29]: -16.8%; growth at 10 µM [30]: 26.5%
CCN1C(=O)N(CC)C2C1NN=c1s/c(=C\c3ccc(Cl)cc3Cl)c(=O)n12 (stereo unspecified) | 27.9 | 21.5 | 67.7 | -12.6 | 28.9 | 16.9 | 28.4 | 13 | 50.9 | 42.3 | -20.8 | 5.7 | 61.1 | 12.9 | 29.2 | 6 | 7.2 | 5 | 14 | 12.4 | growth at 10 µM [21]: 20.6%; growth at 10 µM [22]: 9.4%; growth at 10 µM [31]: 58.8%; growth at 10 µM [23]: 12.8%; Activity [24]: 65%; growth at 10 µM [25]: 46.1%; growth at 10 µM [26]: 21.1%; growth at 10 µM [27]: 2.8%; growth at 10 µM [28]: 68.6%; growth at 10 µM [29]: 9.5%; growth at 10 µM [30]: 18.3%
